SMILES strings stand for the structures.

Data on one molecule can be found in patent US9393190B2, “Methods for enhancing skin tan and reducing risks of UV skin damage” (DSM IP ASSETS B.V., priority 2009, dated 2016).

For the experiment, the system named is Normal human melanocytes NHM (HEMn-MP, Clonetics). The experiment can be described thus: Quantification of melanin synthesis in cell culture (total melanin, absorbance at 405 nm). It counts as cell-based. Here is the method: Quantification of Melanin Synthesis in Cell Culture:
Normal human melanocytes NHM (HEMn-MP, Clonetics) were seeded in 96 well cell culture plates and grown to sub-confluence for two days in a mixture of M2-Medium (Clonetics) and Medium (Promocell). Culture medium was exchanged with Culture Medium containing Steviol (96%) and melanogenesis progressed for another three days at 37° C. with another medium exchange on day two. Including cell layer and culture supernatant the total melanin was extracted using 1.7M KOH with vigorous shaking at RT. The total melanin content was determined at 405 nm in an absorbance plate reader versus a control (100%)

On to `C=C1C[C@@]23CC[C@H]4[C@@](C)(CCC[C@@]4(C)C(=O)O)[C@@H]2CC[C@]1(O)C3` [Steviol], for which the “effect on the production of melanin in human melanocytes” value (0.25 to 1 micro M) is reported as “clear dose dependent positive effect”. Further, the “potency relative to positive control Glycyrrhizin” value (melanin production in human melanocytes) is “about 1000 times”.
